Test results as given in PMC3288053 (PLoS ONE, 2012).

Columns and labels:
[1] = tested on: CHO-K1/GLUT4 cells; assay: Quantification of GLUT4 translocation ratio (IN Cell Analyzer 1000); assay type: cell-based
Protocol: CHO-K1 cells are transfected with pEGFPN1-GLUT4-myc plasmid using Lipofectamine 2000, and subsequently screened with G418 (800 µg/ml). The CHO-K1/GLUT4 stable cell line is obtained by picking up clones.
CHO-K1/GLUT4 cells are seeded into 96-well plate. After cells reached 100% confluence, F12 medium is changed to 3T3-L1 medium and incubated for 2 days. 8-hour serum starvation later, cells are stimulated with insulin for 5 minutes, fixed with 3.7% formaldehyde for 15 minutes, and labeled with anti-myc monoclonal antibody and secondary antibody (Alexa Fluor 647 conjuncted anti-mouse antibody). Fluorescence pictures were obtained by IN Cell Analyzer 1000 Instrument (GE Healthcare) with the same exposure time. The basic unit comprises several core components including a Nikon microscope and a high-resolution CCD camera. Membrane-located GLUT4 is represented by the intensity of red fluorescence (Alex fluor 647) and normalized by the intensity of green fluorescence (GLUT4-EGFP), which is assigned to the total GLUT4 [46].

[2] = target: interaction of RXRα with SRC1 (Homo sapiens, UniProt P19793); assay: Yeast two-hybrid assay; details: AH109 strain, 48 hours
[3] = target: T1, RXRα:RXRα (Homo sapiens, UniProt P19793); assay: Transient transfection luciferase assay in HEK293 cells (RXRE); assay type: cell-based; details: HEK293, 24 h
T1 construct: expressed in transfected cells; host or cells: HEK293
Protocol: (§1) HEK293 cells are transiently transfected by Lipo2000 respectively with RXRα, PPARγ, FXR, and LXRα plasmids plus pGL3-RXRE luciferase vector and renilla luciferase vector for 5 hours. Cells are then incubated with indicated concentrations of compounds for another 24 h and finally lysed. Luciferase activities are measured using Dual Luciferase Assay System kit. Rut dose-dependently activates (a) RXRα:RXRα and (b) PPARγ:RXRα activities. Rut has no effects on (c) FXR: RXRα and (d) LXRα:RXRα activities. Data are presented as means ± s.e.m (*P<0.05, **P<0.01) from three independent experiments.
(§2) HEK293 cells are transfected with luciferase reporter plus Renilla luciferase vector and other plasmids if needed for 5 hours, and cells are then incubated with indicated concentrations of compounds for another 24 h. Finally cells are lysed and luciferase activities are measured using Dual Luciferase Assay System kit. The results are presented as the fold activation relative to untreated cells after normalization with Renilla luciferase values. Each experiment is repeated at least twice, with each sample analyzed in triplicates.

[4] = target: T2, PPARγ:RXRα (Homo sapiens, UniProt P19793+P37231); assay: Transient transfection luciferase assay in HEK293 cells (PPRE); assay type: cell-based; details: HEK293, 24 h
T2 construct: expressed in transfected cells; host or cells: HEK293
Protocol: as §1, §2

[5] = tested on: GLUT4 in 3T3-L1 adipocytes; assay: Western blot of GLUT4 protein level; assay type: cell-based; details: Rut 20 µM
Protocol: Insulin sensitizing effects of Rut are investigated in CHO-K1 and 3T3-L1 adipocytes. After incubation with compounds in serum-free medium for indicated time, cells are stimulated with insulin (170 nM for CHO-K1 cells and 17 nM for 3T3-L1 adipocytes) for 5 min, and the stimulation is stopped by ice-cold PBS. The effect of Rut on insulin signaling is also investigated in CHO-K1 cells. In the assay, cells are stimulated with Rut (20 µM, 8 h) or insulin (170 nM, 5 min), and then lysed on ice. GLUT4 protein level is studied in the differentiated 3T3-L1 adipocytes (the 10th day after MDI stimulation). […] The proteins are resolved by SDS-polyacrylamide gel electrophoresis and electro-transferred to polyvinylidene difluoride membranes. The membrane is blocked by 5% skimmed milk and incubated with antibodies. Proteins are visualized by the ECL detecting system.

T2 sequence (P37231 whole entry): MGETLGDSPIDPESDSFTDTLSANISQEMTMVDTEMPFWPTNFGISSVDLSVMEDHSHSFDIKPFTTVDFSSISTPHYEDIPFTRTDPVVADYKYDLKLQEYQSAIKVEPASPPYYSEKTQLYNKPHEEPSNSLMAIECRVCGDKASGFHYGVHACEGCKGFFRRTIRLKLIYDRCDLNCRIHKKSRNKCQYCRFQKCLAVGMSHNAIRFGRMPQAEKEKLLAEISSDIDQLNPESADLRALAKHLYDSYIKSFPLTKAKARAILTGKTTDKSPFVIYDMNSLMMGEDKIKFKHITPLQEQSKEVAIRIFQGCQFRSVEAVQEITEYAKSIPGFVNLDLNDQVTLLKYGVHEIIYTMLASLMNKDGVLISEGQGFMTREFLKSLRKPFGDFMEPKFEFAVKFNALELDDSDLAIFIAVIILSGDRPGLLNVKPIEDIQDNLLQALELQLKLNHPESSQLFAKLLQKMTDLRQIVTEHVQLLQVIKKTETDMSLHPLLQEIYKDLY
T2 sequence (P19793 whole entry): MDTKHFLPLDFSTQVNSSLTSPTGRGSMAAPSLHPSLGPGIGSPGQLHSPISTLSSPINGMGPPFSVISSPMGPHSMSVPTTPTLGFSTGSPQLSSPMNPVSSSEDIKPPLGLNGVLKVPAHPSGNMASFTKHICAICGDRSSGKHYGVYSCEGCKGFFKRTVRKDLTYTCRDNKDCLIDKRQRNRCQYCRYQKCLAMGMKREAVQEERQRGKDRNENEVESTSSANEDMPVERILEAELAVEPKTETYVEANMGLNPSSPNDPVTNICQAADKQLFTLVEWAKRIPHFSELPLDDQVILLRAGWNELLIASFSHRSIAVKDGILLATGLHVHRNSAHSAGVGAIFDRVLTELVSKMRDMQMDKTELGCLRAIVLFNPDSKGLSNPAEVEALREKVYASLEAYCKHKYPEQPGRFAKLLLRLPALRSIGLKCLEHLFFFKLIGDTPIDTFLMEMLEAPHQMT
T1 sequence (P19793 whole entry): as above
interaction of RXRα with SRC1, sequence (P19793 223-462 limits assumed): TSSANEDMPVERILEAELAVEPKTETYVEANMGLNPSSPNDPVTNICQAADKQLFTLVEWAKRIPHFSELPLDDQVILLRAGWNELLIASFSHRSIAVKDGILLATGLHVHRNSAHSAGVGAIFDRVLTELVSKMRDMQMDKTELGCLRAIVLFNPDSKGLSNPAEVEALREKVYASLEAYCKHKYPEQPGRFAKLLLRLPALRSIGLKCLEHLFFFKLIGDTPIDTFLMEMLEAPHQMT
interaction of RXRα with SRC1, sequence (Q15788 613-773 partner limits assumed): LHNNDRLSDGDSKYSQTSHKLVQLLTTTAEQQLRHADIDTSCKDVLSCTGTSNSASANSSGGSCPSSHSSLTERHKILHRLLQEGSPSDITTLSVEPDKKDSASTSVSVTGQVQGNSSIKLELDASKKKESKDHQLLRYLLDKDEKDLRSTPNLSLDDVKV

SMILES: C=CC(C)(C)c1cc2cc3c(cc2oc1=O)O[C@H](C(C)(C)OC(C)=O)C3 [(+)-Rutamarin]
- EC50 ([1]; Cricetulus griseus, CHO-K1, cells pre-treated with Rut 8 hours, then insulin (170 nM) 5 minutes, read-out: EC50, enhancement of insulin-induced GLUT4 translocation): 7 µM
- basal GLUT4 translocation without insulin induction ([1]; Rut 20 µM, 8 h): induces basal GLUT4 translocation
- effect on pervanadate-stimulated GLUT4 translocation ([1]; Rut 20 µM, pervanadate 100 µM): cannot enhance
- enhancement on insulin-induced GLUT4 translocation compared with compound-2 and pervanadate ([1]; insulin 170 nM, C2 10 µM, pervanadate 100 µM, Rut 5, 10, 20 µM): even stronger
- interaction of SRC1 with RXRα (α-galactosidase activity) [2]: dose-dependently enhances
- activity of RXR-response element (RXRE) [3]: dose-dependently enhance
- activity of PPAR-response element (PPRE) [4]: dose-dependently enhance
- GLUT4 protein level ([5]; 8th hour): no obvious increment
- GLUT4 protein level ([5]; 48 hours): potently increases
